Paper PMC9763021, “Comprehensive Assessment of Biomolecular Interactions of Morpholine-Based Mixed Ligand Cu(II) and Zn(II) Complexes of 2,2′-Bipyridine as Potential Anticancer and SARS-CoV-2 Agents: A Synergistic Experimental and Structure-Based Virtual Screening” (Bioinorganic Chemistry and Applications, 2022)

Experiments:
[1] = system: Salmonella enteric serovar typhi; assay: Agar disc diffusion, strain B; type: cell-based; conditions: for diameter of the clear zone inhibition: control = 6 mm
Protocol: (§1) In-vitro antimicrobial properties were evaluated for all samples by the agar disc diffusion method towards different fungal and bacterial strains. Additionally, the reported inhibition zone values were comparatively analyzed with the standard antifungal drugs ketoconazole and amphotericin B as well as the standard antibiotic medications streptomycin and amikacin.
(§2) The current research has a curious focus on the in vitro antimicrobial properties of biological systems because these studies are crucial for developing effective antibacterial and antifungal medications. […] It can also be spelled out based on the chelation theory proposed by Overtone and Tweedy. Chelation theory points out that the partial exchanging of the positive charge of the metal center with donor moieties, and overlap of the ligand orbitals will reduce the greater degree of the metal ion's polarity, which ultimately rises the delocalization of π and d electrons over the full chelated ring system. By raising the size of the metal ion due to the retarding of polarization, chelation may also enhance the complexes' lipophilic characteristics, which further stimulate the lipid membrane permeability and break down the bacteria' enzymes responsible for cell wall formation, therefore slowing down the regular cell processes. By preventing the production of cell walls/proteins/DNA, including by obstructing folate metabolism and the cytoplasmic membrane, antimicrobial drugs frequently either fully eliminate microbes or only prevent their cell growth. Additionally, the samples' mode of action may be employed in disrupting the cell's respiration process by forming an H-bond during the morpholine-fused iminic group coordinated with the active metal center of its components, inhibiting proliferation of the cell. […] The difference in the antimicrobial efficacy of some of the compounds towards various microorganisms influences on the impermeability of the cells of the germs or the diversity of ribosomes of the microbes. The % of the inhibition of all substances is estimated from (45) (Table 9).
(§3) (A, B, C, D, and E are represented as gram negative bacteria species Escherichia coli, Salmonella enteric serovar typhi, Salmonella enteric serovar typhi, Pseudomonas aeruginosa, and Shigella flexneri, respectively. F & G are denoted as gram positive bacteria species Staphylococcus aureus and Bacillus cereus. H, I, and J are represented as fungal strains Aspergillus niger, Candida albicans, and Mucor indicus. Standard drugs for bacterial strains: Amikacin & Streptomycin Standard drugs for fungal strains: Ketoconazole and Amphotericin B. [Control (DMSO) = 6 mm].(44) Inhibition %=T–C/T×100, where T and C are represented as the diameter of microbial growth of the sample plates and the control plate (6 mm), respectively. Error limits ±2.5–5.0% (P ≤ 0.05).

[2] = Hydroxyl radical scavenging assay; type: biochemical; conditions: for % Inhibition hydroxyl radical: 230 nm
Protocol: All samples were evaluated for their scavenging ability with the help of UV-visible spectrophotometer at different concentrations of 40, 80, 120, 160, 200, and 240 μM [6, 28]. While performing the antioxidant properties for the DPPH, hydroxyl, superoxide, and nitric oxide radical scavenging, the absorbance at 517, 230, 590, and 546 nm, respectively, was closely observed. In addition, the observed IC50 values of all samples were compared with ascorbic acid.
Hydrogen peroxide receives electrons from antioxidant molecules and then neutralizes them into a water molecule. ^●OH inhibition capability was determined from the % of inhibition for all test substances at 230 nm.

Escherichia coli = assay: Agar disc diffusion, strain A; type: cell-based; design: (inhibition %): concentration or dose not given beside the values; conditions: for (inhibition %): (T–C)/T×100; for diameter of the clear zone inhibition: control (DMSO) = 6 mm
Protocol: as §1, §2, §3

Mucor indicus = assay: Agar disc diffusion, strain J; type: cell-based; design: (inhibition %): concentration or dose not given beside the values; conditions: for diameter of the clear zone inhibition: control = 6 mm
Protocol: as §1, §2, §3

Staphylococcus aureus = assay: Agar disc diffusion, strain F; type: cell-based; design: (inhibition %): concentration or dose not given beside the values; conditions: for diameter of the clear zone inhibition: control = 6 mm
Protocol: as §1, §2, §3

[3] = system: calf thymus deoxyribonucleic acid; assay: DNA binding by viscometric (hydrodynamic) technique
Protocol: The titrations were performed for all compounds including EB (control) at 20, 40, 60, 80, and 100 μM concentrations. In the Ostwald viscometer, these substances were also separately treated with the calf thymus deoxyribonucleic acid solution (100 μM).
Hydrodynamic findings can be utilized to assess the alteration of DNA length and afford details on the binding tendency between small molecules and biomolecules. As a result of their sensitivity to DNA contour length changes, which implies that the average distance between each monomer (cl = 0.338 nm/bp for B-form DNA), the DNA binding properties of all test compounds were further validated by this method. According to the Lerman concept, interactions between small molecules and deoxyribonucleic acid via covalent and noncovalent bindings are often possible. When a chemical substance interacts with the deoxyribonucleic acid double helix, the contour length of DNA increases via intercalation and leads to an increase in the absolute viscosity. Meanwhile, if DNA viscosity is not affected during interactions, which leads to the responsible for the major/minor groove binding due to H-bond/Van der Waals interactions, electrostatic, partial, or nonclassical interaction modes. Therefore, analyzing the binding modes provides additional support for the findings as well as a crucial aspect of the conventional intercalation concept. In this case, it was observed that the absolute viscosity increased consistently along with the concentration of each substance at the fixed DNA concentration. The DNA must extend to facilitate the binding of ligands, which causes a considerable rise in DNA viscosity while small molecules intercalate into the DNA helix. According to equation (12), an increase in relative viscosity denotes an intercalation-induced lengthening of the deoxyribonucleic acid base pair. While adhering to the principle of excluding the nearest neighbors, intercalation entails inserting a planar molecule into a DNA base pair without rupturing the hydrogen bonds that hold the base pairs together. This causes a diminution in the DNA helical twist and an extension of the DNA. Moreover, a molecule can be presumed to bind to deoxyribonucleic acid by intercalation between base pairs if it causes lengthening and unwinding of the deoxyribonucleic acid base pairs. In this case, the relative viscosity of DNA gradually increases, while the […]. Moreover, the affinity interactions and their slope values were observed from the relative specific viscosity (η⁄η0)^1/3 plotted straight line contrasting [Compound]/[DNA], and absolute specific viscosity of deoxyribonucleic acid in the absence or presence of samples was evaluated using equation (12) (Table 3). […] The evaluated slope findings were in the subsequent sequence: (EB) 1.215 > (1a) 0.915 > (2a) 0.630 > (HL) 0.490 (Figure S21 and Table 3). […] Due to the existence of the 2,2′-bipyridine and morpholine-fused aromatic planar systems, compounds can interact with deoxyribonucleic acid robustly via intercalation. The outcomes were excellent in accordance with the observed outcomes of absorption spectral properties.(11) η/η0^1/3=tcomplex−t0/t0/tDNA−t0/t0, where η and η0 are represented as specific viscosity of DNA in the presence complex and specific viscosity of DNA alone, and t0, tDNA, and tcomplex are represented as the average flow time of the Tris-HCl buffer solution, the average flow time of DNA alone solution, and the average flow time of DNA interacted with the samples, respectively. Error limit is ±2.5% (P < 0.025).

| SMILES | (inhibition %) [1] [%] | diameter of the clear zone inhibition [1] [mm] | % Inhibition hydroxyl radical ([2]; 40 µM) [%] | % Inhibition hydroxyl radical ([2]; 80 µM) [%] | % Inhibition hydroxyl radical ([2]; 120 µM) [%] | % Inhibition hydroxyl radical ([2]; 160 µM) [%] | % Inhibition hydroxyl radical ([2]; 200 µM) [%] | % Inhibition hydroxyl radical ([2]; 240 µM) [%] | (inhibition %) (Escherichia coli) [%] | diameter of the clear zone inhibition (Escherichia coli) [mm] | (inhibition %) (Mucor indicus) [%] | diameter of the clear zone inhibition (Mucor indicus) [mm] | (inhibition %) (Staphylococcus aureus) [%] | diameter of the clear zone inhibition (Staphylococcus aureus) [mm] | Slope of (η/η0)^1/3 vs [Compound]/[DNA] [3] | Relative specific viscosity (η/η0)^1/3 ([3]; [complex]/[DNA] = 0.2) | Relative specific viscosity (η/η0)^1/3 ([3]; [complex]/[DNA] = 0.4) | Relative specific viscosity (η/η0)^1/3 ([3]; [complex]/[DNA] = 0.6) | Relative specific viscosity (η/η0)^1/3 ([3]; [complex]/[DNA] = 0.8) | Relative specific viscosity (η/η0)^1/3 ([3]; [complex]/[DNA] = 1.0) | also measured |
| --- | --- | --- | --- | --- | --- | --- | --- | --- | --- | --- | --- | --- | --- | --- | --- | --- | --- | --- | --- | --- | --- |
| [O-]c1ccccc1N=Cc1ccc(N2CCOCC2)cc1.[O-]c1ccccc1N=Cc1ccc(N2CCOCC2)cc1.[Zn+2].c1ccc(-c2ccccn2)nc1 [(2a), [Zn(L)2(bpy)]] | 33 | 09 | 08.25 | 16.86 | 25.78 | 34.66 | 45.78 | 56.14 | 50 | 12 | 60 | 15 | 45 | 11 | 0.630 | 0.74 | 0.81 | 0.87 | 1.03 | 1.26 |  |
| Oc1ccccc1N=Cc1ccc(N2CCOCC2)cc1 [(HL), 2-(4-morpholinobenzylideneamino)phenol] | 33 | 09 | 07.26 | 14.43 | 25.52 | 33.86 | 40.73 | 50.68 | 33 | 09 | 45 | 11 | 33 | 09 | 0.490 | 0.61 | 0.67 | 0.75 | 0.85 | 1.01 |  |
| [Cu+2].[O-]c1ccccc1N=Cc1ccc(N2CCOCC2)cc1.[O-]c1ccccc1N=Cc1ccc(N2CCOCC2)cc1.c1ccc(-c2ccccn2)nc1 [(1a), [Cu(L)2(bpy)]] | 40 | 10 | 09.16 | 18.23 | 32.22 | 40.12 | 51.14 | 61.10 | 54 | 13 | 50 | 12 | 50 | 12 | 0.915 | 0.88 | 1.11 | 1.22 | 1.38 | 1.66 | IC50 [2]: 200 µM |
